Measured values as given in ChEMBL document CHEMBL4619749, “Triazoxins: Novel nucleosides with anti-Giardia activity” (Bioorg Med Chem Lett, 2020).
pEC50, pIC50: −log10 of the molar value.

How the values were obtained:
Format in all cases: functional, organism-based
Settings in all cases: Giardia duodenalis
[1] = test system: Giardia intestinalis; experiment: Antimicrobial activity against Giardia lamblia assemblage A WB C6 ATCC 30957 trophozoites
[2] = test system: Giardia intestinalis; experiment: Antimicrobial activity against Giardia lamblia assemblage A WB C6 ATCC 30957 cyst
[3] = test system: Giardia intestinalis; experiment: Antimicrobial activity against Giardia lamblia GS/M assessed as reduction in trophozoites formation

| SMILES | pIC50 [1] | pIC50 [2] | pEC50 [3] |
| --- | --- | --- | --- |
| O=c1ccn([C@@H]2O[C@H](Cn3cc(C#CC#Cc4cn(C[C@H]5O[C@@H](n6ccc(=O)[nH]c6=O)[C@H](O)[C@@H]5O)nn4)nn3)[C@@H](O)[C@H]2O)c(=O)[nH]1 | 4.33 | < 4.30 | – |
| COc1ccc(Cn2cc(C#Cc3cn(C[C@H]4O[C@@H](n5ccc(=O)n(Cc6ccc(OC)cc6)c5=O)[C@@H]5OC(C)(C)O[C@@H]54)nn3)c(=O)n(Cc3ccc(OC)cc3)c2=O)cc1 | 4.44 | 5.30 | – |
| CC1(C)O[C@@H]2[C@H](O1)[C@@H](Cn1cc(CCCCc3cn(C[C@H]4O[C@@H](n5ccc(=O)[nH]c5=O)[C@@H]5OC(C)(C)O[C@@H]54)nn3)nn1)O[C@H]2n1ccc(=O)[nH]c1=O | 4.33 | < 4.30 | – |
| O=c1ccn([C@@H]2O[C@H](Cn3cc(C#Cc4c[nH]c(=O)[nH]c4=O)nn3)[C@@H](O)[C@H]2O)c(=O)[nH]1 | 4.44 | 4.70 | – |
| CC1(C)O[C@@H]2[C@H](O1)[C@@H](Cn1cc(C#Cc3c[nH]c(=O)[nH]c3=O)nn1)O[C@H]2n1ccc(=O)[nH]c1=O | 5.30 | < 4.30 | – |
| Cc1ncc([N+](=O)[O-])n1CCO [METRONIDAZOLE] | – | – | 5.28 |
